Assay results taken from PMC7356696, “Synthesis, Antimicrobial Activity and Molecular Docking of Novel Thiourea Derivatives Tagged with Thiadiazole, Imidazole and Triazine Moieties as Potential DNA Gyrase and Topoisomerase IV Inhibitors” (Molecules, 2020).
In brackets after ≈: the same amount, converted by molar mass.

Experiments:
[1] = system: Bacillus subtilis ATCC 6633; assay: Agar well diffusion, inhibition zone; format: cell-based; design: dose or concentration left out as unconfirmed; conditions: ATCC6633, B. subtilis ATCC 6633, NA = No Activity, read-out: Mean Diameter of Inhibition Zone (Mean ± SEM)
From the text: (§1) The antimicrobial activity of all synthesized compounds 2–13 was screened against a panel of two Gram-positive bacteria (Staphylococcus aureus ATCC 29213 and Bacillus subtilis ATCC 6633), two Gram-negative bacteria (Escherichia coli ATCC 25922, Pseudomonas aeruginosa ATCC 27853) and two fungi (Candida albicans ATCC 10231 and Aspergillus flavus ATCC 46283) using the agar well diffusion method. Ciprofloxacin and clotrimazole were used as antibacterial and antifungal standards, respectively. The results of this study were recorded as the average diameter of the inhibition zones (IZ) in Table 1. […] Additionally, the promising activity against S. aureus was observed from compounds 9, 12 and 13, however against B. subtilis from compounds 12 and 13.
(§2) The antimicrobial assay was performed in vitro for the target compounds 2–13 against Staphylococcus aureus ATCC 29213, Bacillus subtilis ATCC 6633 as Gram-positive bacteria, Escherichia coli ATCC 25922, Pseudomonas aeruginosa ATCC 27853 as Gram-negative bacteria and Candida albicans ATCC 10231, Aspergillus flavus ATCC 46283 as fungi. At the first, 100 μL of the test bacteria/fungi were grown in 10 mL of fresh media until they reached a count of approximately 10^8 cells/ml for bacteria or 10^5 cells/mL for fungi. […] The plates were incubated for 24 h at 37 °C (for bacteria and yeast) and for 72 h at 27 °C (for filamentous fungi), each test was repeated three times. After incubation, the microorganism’s growth was observed. Ciprofloxacin and clotrimazole were used as standard antibacterial and antifungal drugs, respectively. The resulting inhibition zone diameters were measured in millimeters using the diffusion technique. […] The different concentrations (triplicate) of each compound were tested and compared with standard drugs.

[2] = system: Staphylococcus aureus ATCC 29213; assay: Agar well diffusion, inhibition zone; format: cell-based; design: dose or concentration left out as unconfirmed; conditions: ATCC29213, S. aureus ATCC 29213, NA = No Activity, read-out: Mean Diameter of Inhibition Zone (Mean ± SEM)
From the text: as §1, §2

[3] = system: Aspergillus flavus ATCC 46283; assay: Agar well diffusion, inhibition zone; format: cell-based; design: dose or concentration left out as unconfirmed; conditions: ATCC46283, A. flavus ATCC 46283, NA = No Activity, read-out: Mean Diameter of Inhibition Zone (Mean ± SEM)
From the text: as §1
(§3) The antimicrobial assay was performed in vitro for the target compounds 2–13 against Staphylococcus aureus ATCC 29213, Bacillus subtilis ATCC 6633 as Gram-positive bacteria, Escherichia coli ATCC 25922, Pseudomonas aeruginosa ATCC 27853 as Gram-negative bacteria and Candida albicans ATCC 10231, Aspergillus flavus ATCC 46283 as fungi. At the first, 100 μL of the test bacteria/fungi were grown in 10 mL of fresh media until they reached a count of approximately 10^8 cells/ml for bacteria or 10^5 cells/mL for fungi. […] of each sample (at 0.5 mg/mL) was added to each well (10 mm diameter holes cut in the agar gel). The plates were incubated for 24 h at 37 °C (for bacteria and yeast) and for 72 h at 27 °C (for filamentous fungi), each test was repeated three times. After incubation, the microorganism’s growth was observed. Ciprofloxacin and clotrimazole were used as standard antibacterial and antifungal drugs, respectively. The resulting inhibition zone diameters were measured in millimeters using the diffusion technique. […] The different concentrations (triplicate) of each compound were tested and compared with standard drugs.

[4] = system: Candida albicans ATCC 10231; assay: Agar well diffusion, inhibition zone; format: cell-based; design: dose or concentration left out as unconfirmed; conditions: ATCC10231, C. albicans ATCC 10231, NA = No Activity, read-out: Mean Diameter of Inhibition Zone (Mean ± SEM)
From the text: as §1, §3

[5] = system: Escherichia coli ATCC 25922; assay: Agar well diffusion, inhibition zone; format: cell-based; design: dose or concentration left out as unconfirmed; conditions: ATCC25922, E. coli ATCC 25922, NA = No Activity, read-out: Mean Diameter of Inhibition Zone (Mean ± SEM)
From the text: as §1, §3

[6] = system: Pseudomonas aeruginosa ATCC 27853; assay: Agar well diffusion, inhibition zone; format: cell-based; design: dose or concentration left out as unconfirmed; conditions: ATCC27853, P. aeruginosa ATCC 27853, NA = No Activity, read-out: Mean Diameter of Inhibition Zone (Mean ± SEM)
From the text: as §1, §3

[7] = system: Aspergillus flavus ATCC 46283; assay: MIC, modified agar well diffusion method; format: cell-based; conditions: ATCC46283, A. flavus ATCC 46283, read-out: MIC (Mean ± SEM)
From the text: as §1, §3

[8] = system: Bacillus subtilis ATCC 6633; assay: MIC, modified agar well diffusion method; format: cell-based; conditions: ATCC6633, B. subtilis ATCC 6633, read-out: MIC (Mean ± SEM)
From the text: as §1, §3

[9] = system: Candida albicans ATCC 10231; assay: MIC, modified agar well diffusion method; format: cell-based; conditions: ATCC10231, C. albicans ATCC 10231, read-out: MIC (Mean ± SEM)
From the text: as §1, §3

[10] = system: Escherichia coli ATCC 25922; assay: MIC, modified agar well diffusion method; format: cell-based; conditions: ATCC25922, E. coli ATCC 25922, read-out: MIC (Mean ± SEM)
From the text: as §1, §3

[11] = system: Pseudomonas aeruginosa ATCC 27853; assay: MIC, modified agar well diffusion method; format: cell-based; conditions: ATCC27853, P. aeruginosa ATCC 27853, read-out: MIC (Mean ± SEM)
From the text: as §1, §3

[12] = system: Staphylococcus aureus ATCC 29213; assay: MIC, modified agar well diffusion method; format: cell-based; conditions: ATCC29213, S. aureus ATCC 29213, read-out: MIC (Mean ± SEM)
From the text: as §1, §3

[13] = MTT assay for cytotoxic activity; format: cell-based; conditions: African green monkey, Vero cells (normal kidney epithelial cell line), read-out: IC50 (Mean ± SEM), cytotoxic activity
From the text: (§4) The results are expressed as IC50 values (µM) and are depicted in Table 3.

[14] = system: human breast cancer (MCF-7) cells; assay: MTT assay for cytotoxic activity; format: cell-based; conditions: Homo sapiens, MCF7, MCF-7 cells, read-out: IC50 (Mean ± SEM), cytotoxic activity
From the text: as §4

[15] = target: T1, E. coli DNA gyrase B (Escherichia coli, UniProt P0AES6); assay: In vitro enzyme inhibition, DNA gyrase microplate assay kit (Inspiralis); format: biochemical
T1 construct: purchased Inspiralis
Protocol: (§5) This test was performed at the Confirmatory Diagnostic Unit, VACSERA, Egypt.
(§6) The screening performed against E. coli DNA gyrase B, E. coli Topoisomerase IV and dihydrofolate reductase enzymes.

[16] = target: T2, E. coli Topoisomerase IV (Escherichia coli, UniProt P20083); assay: In vitro enzyme inhibition, topoisomerase IV decatenation kit (Inspiralis); format: biochemical
T2 construct: purchased Inspiralis
T2 sequence (P0AFI2 whole entry): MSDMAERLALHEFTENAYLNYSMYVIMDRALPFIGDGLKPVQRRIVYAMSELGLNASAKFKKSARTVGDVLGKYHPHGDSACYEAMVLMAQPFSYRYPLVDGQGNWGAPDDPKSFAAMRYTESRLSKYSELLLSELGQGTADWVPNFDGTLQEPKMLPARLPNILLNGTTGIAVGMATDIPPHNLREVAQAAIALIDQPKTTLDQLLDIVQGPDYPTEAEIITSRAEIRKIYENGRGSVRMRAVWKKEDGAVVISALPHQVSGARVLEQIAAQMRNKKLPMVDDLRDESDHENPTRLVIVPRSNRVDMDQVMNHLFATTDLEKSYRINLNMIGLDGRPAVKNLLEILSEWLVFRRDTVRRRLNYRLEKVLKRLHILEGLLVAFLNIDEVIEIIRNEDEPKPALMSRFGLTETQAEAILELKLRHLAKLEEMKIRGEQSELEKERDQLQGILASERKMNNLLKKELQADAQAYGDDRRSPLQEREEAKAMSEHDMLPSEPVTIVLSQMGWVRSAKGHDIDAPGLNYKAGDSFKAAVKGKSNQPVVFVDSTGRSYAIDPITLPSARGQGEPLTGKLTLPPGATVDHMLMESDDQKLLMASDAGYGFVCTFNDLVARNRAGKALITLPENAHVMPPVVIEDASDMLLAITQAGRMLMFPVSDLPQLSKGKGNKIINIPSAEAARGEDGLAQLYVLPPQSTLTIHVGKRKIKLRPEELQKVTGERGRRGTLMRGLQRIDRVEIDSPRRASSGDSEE
T2 sequence (P20083 whole entry): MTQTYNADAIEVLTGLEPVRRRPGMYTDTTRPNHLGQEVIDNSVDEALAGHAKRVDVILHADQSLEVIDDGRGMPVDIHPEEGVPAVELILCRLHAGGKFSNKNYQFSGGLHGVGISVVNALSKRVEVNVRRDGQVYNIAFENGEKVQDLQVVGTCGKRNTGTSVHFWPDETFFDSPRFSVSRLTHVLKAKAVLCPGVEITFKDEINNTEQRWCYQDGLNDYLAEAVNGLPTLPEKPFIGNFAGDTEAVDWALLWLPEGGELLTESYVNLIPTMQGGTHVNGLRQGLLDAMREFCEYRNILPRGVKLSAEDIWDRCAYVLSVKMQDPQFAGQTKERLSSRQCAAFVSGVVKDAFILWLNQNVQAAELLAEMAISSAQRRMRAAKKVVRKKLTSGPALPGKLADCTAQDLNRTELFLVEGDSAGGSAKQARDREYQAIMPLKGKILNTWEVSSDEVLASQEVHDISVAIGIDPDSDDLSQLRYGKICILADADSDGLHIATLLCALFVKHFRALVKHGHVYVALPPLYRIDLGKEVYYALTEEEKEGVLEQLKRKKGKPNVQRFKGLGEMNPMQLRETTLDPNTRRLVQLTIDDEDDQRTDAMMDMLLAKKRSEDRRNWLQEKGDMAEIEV
Protocol: as §5, §6

[17] = target: T3, dihydrofolate reductase (DHFR) (Homo sapiens, UniProt P00374); assay: Dihydrofolate reductase inhibitor screening kit (colorimetric, BioVision); format: biochemical; conditions: read-out: IC50 (mean ± SEM)
T3 construct: purchased Bio Vision
T3 sequence (P00374 1-187): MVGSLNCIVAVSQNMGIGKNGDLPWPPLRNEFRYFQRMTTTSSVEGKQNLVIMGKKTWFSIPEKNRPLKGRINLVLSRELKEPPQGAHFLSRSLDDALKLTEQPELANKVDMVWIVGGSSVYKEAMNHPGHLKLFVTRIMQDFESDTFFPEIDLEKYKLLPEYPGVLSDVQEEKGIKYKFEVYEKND
Protocol: as §5, §6

N#CCC(=O)NNC(=S)NC(=O)Cc1ccccc1 [Compound 8, 1-(2-Cyanoacetyl)-4-phenylacetylthiosemicarbazide]
zone of inhibition [1]: 42 ± 0.3 mm
zone of inhibition [2]: 39 ± 1.21 mm
zone of inhibition [3]: 27 ± 0.21 mm
zone of inhibition [4]: 18 ± 0.05 mm
zone of inhibition [5]: 27 ± 0.62 mm
zone of inhibition [6]: 36 ± 0.12 mm
MIC [7]: 2.11 ± 0.51 µg/mL (≈ 7.64 µM)
MIC [8]: 1.38 ± 0.25 µg/mL (≈ 4.99 µM)
MIC [9]: 39.8 ± 0.2 µg/mL (≈ 144 µM)
MIC [10]: 0.95 ± 0.22 µg/mL (≈ 3.44 µM)
MIC [11]: 1.25 ± 0.5 µg/mL (≈ 4.52 µM)
MIC [12]: 3.25 ± 1 µg/mL (≈ 11.8 µM)
IC50 [13]: 144.7 ± 0.36 µM
IC50 [14]: 22.4 ± 0.36 µM
IC50 [15]: 330 nM
IC50 [16]: 19.7 ± 1 µM
IC50 [17]: 189.5 ± 1.06 µM
